Legend:
[1] = target: T1, rabbit skeletal muscle F-actin (Oryctolagus cuniculus, UniProt P68135); test: Cosedimentation assay; assay type: binding; details: F-actin 200 nM, Langmuir fit
T1 construct: Purified rabbit skeletal muscle filamentous actin (catalog number AKF99); purchased Cytoskeleton, Inc. AKF99; host or cells: rabbit skeletal muscle (tissue-purified)
Description: Purified rabbit skeletal muscle filamentous actin (catalog number AKF99) and G-actin (catalog number AKL95) were purchased from Cytoskeleton, Inc. Actin was reconstituted in Milli-Q water to achieve a stock concentration of 0.4 mg/ml in a buffer that consisted of 5 mM Tris-HCl (pH 8.0), 0.2 mM CaCl2, 0.2 mM ATP, 2 mM MgCl2, and 5% (wt/vol) sucrose as directed by the supplier. This solution was stored at −80°C in 50-μl aliquots until use. Immediately before use, each aliquot was thawed by placing it in a 37°C water bath for 5 min and then at room temperature. For all studies, 24 μg of F- or G-actin was used with 8 μg alkyne-OF. F-actin filaments were reacted with native occidiofungin for 15 min at room temperature at molar ratios of 1:10 (24 μg actin to 8 μg native occidiofungin) and 1:5 (24 μg actin to 4 μg native occidiofungin). As per the manufacturer’s instructions, Acti-stain 670 phalloidin (Cytoskeleton, Inc.) was used as a control in an in vitro actin filament binding study. Actin filaments treated with DMSO (solvent blank negative control) were stained and observed for comparison. […]
The reaction buffer for F-actin (200 nM) and occidiofungin in the cosedimentation study consisted of 5 mM Tris-HCl (pH 8.0), 0.2 mM ATP, and 2 mM MgCl2. […] A TSQ Quantum access triple quadrupole mass spectrometer was used to quantify the amount of occidiofungin within each sample. […]

[2] = tested on: Mucor circinelloides 19445; test: MIC susceptibility testing; assay type: cell-based; details: CLSI M38-A2
Description: (§1) Occidiofungin was purified from a liquid culture of Burkholderia contaminans MS14 as previously described ([21]). MIC susceptibility testing was performed according to the CLSI M27-A3 and M38-A2 standards for the susceptibility testing of yeasts and filamentous fungi, respectively. S. cerevisiae deletion mutants were obtained from the commercially available BY4741 deletion library (Thermo Scientific).

[3] = tested on: Fusarium solani 18749; test: MIC susceptibility testing; assay type: cell-based; details: CLSI M38-A2
Description: as §1

[4] = tested on: Trichophyton mentagrophytes 28641; test: MIC susceptibility testing; assay type: cell-based; details: CLSI M38-A2; 96 hours
Description: as §1

[5] = tested on: Candida tropicalis 28272; test: MIC susceptibility testing; assay type: cell-based; details: CLSI M27-A3
Description: as §1

[6] = tested on: Aspergillus fumigatus 28436; test: MIC susceptibility testing; assay type: cell-based; details: CLSI M38-A2
Description: as §1

[7] = tested on: Candida auris MRL# 35651; test: MIC susceptibility testing; assay type: cell-based; details: CLSI M27-A3; 24 hours
Description: as §1

[8] = tested on: Candida glabrata 28271; test: MIC susceptibility testing; assay type: cell-based; details: CLSI M27-A3
Description: as §1

[9] = tested on: Trichophyton rubrum 28659; test: MIC susceptibility testing; assay type: cell-based; details: CLSI M38-A2; 96 hours
Description: as §1

[10] = tested on: Trichophyton mentagrophytes 28556; test: MIC susceptibility testing; assay type: cell-based; details: CLSI M38-A2; 96 hours
Description: as §1

[11] = tested on: Trichophyton rubrum 28658; test: MIC susceptibility testing; assay type: cell-based; details: CLSI M38-A2; 96 hours
Description: as §1

[12] = tested on: Candida albicans 28200; test: MIC susceptibility testing; assay type: cell-based; details: CLSI M27-A3
Description: as §1

[13] = tested on: Candida auris MRL# 35646; test: MIC susceptibility testing; assay type: cell-based; details: CLSI M27-A3; 24 hours
Description: as §1

[14] = tested on: Candida parapsilosis 28364; test: MIC susceptibility testing; assay type: cell-based; details: CLSI M27-A3
Description: as §1

[15] = tested on: Candida tropicalis 28478; test: MIC susceptibility testing; assay type: cell-based; details: CLSI M27-A3
Description: as §1

[16] = tested on: Candida krusei 28570; test: MIC susceptibility testing; assay type: cell-based; details: CLSI M27-A3
Description: as §1

occidiofungin
saturation of binding, stoichiometry ligand : actin monomer [1]: 24
Kd ([1]; occidiofungin 25 to 25,600 nM, pH 8.0, room temperature, 30 min, LC-MS quantification, read-out: estimated macroscopic dissociation constant (Kd)): 1000 nM
MIC, 50% inhibition ([2]; 24 hours): 4 µg/mL
MIC, 100% inhibition ([2]; 24 hours): 8 µg/mL
MIC, 50% inhibition ([2]; 48 hours): 4 µg/mL
MIC, 100% inhibition ([2]; 48 hours): 8 µg/mL
MIC, 50% inhibition ([3]; 24 hours): 2 µg/mL
MIC, 100% inhibition ([3]; 24 hours): 4 µg/mL
MIC, 50% inhibition ([3]; 48 hours): 2 µg/mL
MIC, 100% inhibition ([3]; 48 hours): 4 µg/mL
MIC, 80% inhibition [4]: 1 µg/mL
MIC, 100% inhibition [4]: 2 µg/mL
MIC, 50% inhibition ([5]; 24 hours): 4 µg/mL
MIC, 100% inhibition ([5]; 24 hours): 8 µg/mL
MIC, 50% inhibition ([5]; 48 hours): 4 µg/mL
MIC, 100% inhibition ([5]; 48 hours): 8 µg/mL
MIC, 50% inhibition ([6]; 24 hours): 2 µg/mL
MIC, 100% inhibition ([6]; 24 hours): 4 µg/mL
MIC, 50% inhibition ([6]; 48 hours): 2 µg/mL
MIC, 100% inhibition ([6]; 48 hours): 4 µg/mL
MIC, 50% inhibition [7]: 0.125 µg/mL
MIC, 100% inhibition [7]: 0.25 µg/mL
MIC, 50% inhibition ([8]; 24 hours): 4 µg/mL
MIC, 100% inhibition ([8]; 24 hours): 8 µg/mL
MIC, 50% inhibition ([8]; 48 hours): 4 µg/mL
MIC, 100% inhibition ([8]; 48 hours): 8 µg/mL
MIC, 80% inhibition [9]: 1 µg/mL
MIC, 100% inhibition [9]: 2 µg/mL
MIC, 80% inhibition [10]: 1 µg/mL
MIC, 100% inhibition [10]: 2 µg/mL
MIC, 80% inhibition [11]: 1 µg/mL
MIC, 100% inhibition [11]: 2 µg/mL
MIC, 50% inhibition ([12]; 24 hours): 4 µg/mL
MIC, 100% inhibition ([12]; 24 hours): 8 µg/mL
MIC, 50% inhibition ([12]; 48 hours): 4 µg/mL
MIC, 100% inhibition ([12]; 48 hours): 8 µg/mL
MIC, 50% inhibition [13]: 0.125 µg/mL
MIC, 100% inhibition [13]: 0.25 µg/mL
MIC, 50% inhibition ([14]; 24 hours): 4 µg/mL
MIC, 100% inhibition ([14]; 24 hours): 8 µg/mL
MIC, 50% inhibition ([14]; 48 hours): 4 µg/mL
MIC, 100% inhibition ([14]; 48 hours): 8 µg/mL
MIC, 50% inhibition ([15]; 24 hours): 4 µg/mL
MIC, 100% inhibition ([15]; 24 hours): 8 µg/mL
MIC, 50% inhibition ([15]; 48 hours): 4 µg/mL
MIC, 100% inhibition ([15]; 48 hours): 8 µg/mL
MIC, 50% inhibition ([16]; 24 hours): 4 µg/mL
MIC, 100% inhibition ([16]; 24 hours): 8 µg/mL
MIC, 50% inhibition ([16]; 48 hours): 4 µg/mL
MIC, 100% inhibition ([16]; 48 hours): 8 µg/mL
